ChEMBL document CHEMBL1136926 (J Med Chem, 2009)
Positions of bridges follow the written chain, without caps; N, C: chain ends. Non-standard residues stand in square brackets, D forms with d. Residues, ends and D or L forms follow the SMILES beside them. Phe(4-NO2) = N[C@@H](Cc1ccc([N+](=O)[O-])cc1)C(=O)O; Phe(4-Cl) = N[C@@H](Cc1ccc(Cl)cc1)C(=O)O; 1Nal = N[C@@H](Cc1cccc2ccccc12)C(=O)O; 2Nal = N[C@@H](Cc1ccc2ccccc2c1)C(=O)O; Tic = O=C(O)[C@@H]1Cc2ccccc2CN1; Pen = CC(C)(S)[C@H](N)C(=O)O

Columns and labels:
Urotensin-2 receptor [1] = molecular target: T1, Urotensin-2 receptor (Homo sapiens, UniProt Q9UKP6); experiment: Displacement of [125I]urotensin-2 from human UT2 receptor expressed in CHO-K1 cells by liquid scintillation counting; assay type: cell-based
T1 sequence (Q9UKP6 whole entry): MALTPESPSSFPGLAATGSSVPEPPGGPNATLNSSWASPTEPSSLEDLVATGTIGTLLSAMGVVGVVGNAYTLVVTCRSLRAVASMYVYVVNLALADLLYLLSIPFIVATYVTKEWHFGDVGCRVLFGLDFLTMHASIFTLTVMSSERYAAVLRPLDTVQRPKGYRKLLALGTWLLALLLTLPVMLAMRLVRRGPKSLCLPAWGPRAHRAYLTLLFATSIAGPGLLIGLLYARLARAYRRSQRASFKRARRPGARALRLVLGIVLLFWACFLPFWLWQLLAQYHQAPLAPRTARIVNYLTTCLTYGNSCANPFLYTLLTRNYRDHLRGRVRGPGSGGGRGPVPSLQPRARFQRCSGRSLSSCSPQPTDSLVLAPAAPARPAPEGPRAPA

Urotensin-2 receptor [2] = molecular target: T2, Urotensin-2 receptor (Rattus norvegicus, UniProt P49684); experiment: Agonist activity at UT2 receptor in Albino rat aorta assessed as induction of aortic contraction
T2 sequence (P49684 whole entry): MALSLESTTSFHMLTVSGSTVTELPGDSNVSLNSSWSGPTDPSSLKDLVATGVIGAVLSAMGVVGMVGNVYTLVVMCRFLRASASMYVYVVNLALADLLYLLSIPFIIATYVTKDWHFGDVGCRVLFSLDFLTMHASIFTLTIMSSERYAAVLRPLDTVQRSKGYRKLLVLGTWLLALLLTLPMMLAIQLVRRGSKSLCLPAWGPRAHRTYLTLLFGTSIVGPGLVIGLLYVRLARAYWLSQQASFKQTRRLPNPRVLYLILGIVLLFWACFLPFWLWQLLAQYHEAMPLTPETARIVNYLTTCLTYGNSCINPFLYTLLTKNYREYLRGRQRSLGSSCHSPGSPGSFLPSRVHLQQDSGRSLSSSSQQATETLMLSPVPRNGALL

[3] = molecular target: T3, Urotensin-2 receptor (Rattus norvegicus) (UniProt P49684); experiment: Antagonist activity at UT2 receptor in Albino rat aorta assessed as inhibition of […] aortic contraction; assay type: functional, tissue-based
T3 sequence (whole entry): T2 sequence (P49684 whole entry)

## CC(C)[C@H](NC(=O)[C@@H]1CSSC(C)(C)[C@H](NC(=O)[C@H](C)N)C(=O)N[C@@H](Cc2ccccc2)C(=O)N[C@H](Cc2c[nH]c3ccccc23)C(=O)N[C@@H](CCCN)C(=O)N[C@@H](Cc2ccc(O)cc2)C(=O)N1)C(=O)O
Urotensin-2 receptor [1]
  Ki: 1.66 nM

## CC(C)[C@H](NC(=O)[C@@H]1CSSC(C)(C)[C@H](NC(=O)[C@@H](N)Cc2ccc([N+](=O)[O-])cc2)C(=O)N[C@@H](Cc2ccccc2)C(=O)N[C@H](Cc2c[nH]c3ccccc23)C(=O)N[C@@H](CCCN)C(=O)N[C@@H](Cc2ccc(O)cc2)C(=O)N1)C(=O)O
Urotensin-2 receptor [1]
  Ki: 15.8 nM

## CC(C)[C@H](NC(=O)[C@@H]1CSSC(C)(C)[C@H](NC(=O)[C@@H](N)Cc2ccccc2)C(=O)N[C@@H](Cc2ccccc2)C(=O)N[C@H](Cc2c[nH]c3ccccc23)C(=O)N[C@@H](CCCN)C(=O)N[C@@H](Cc2ccc(O)cc2)C(=O)N1)C(=O)O
Urotensin-2 receptor [1]
  Ki: 19.5 nM

## CC(C)[C@H](NC(=O)[C@@H]1CSSC(C)(C)[C@H](NC(=O)[C@@H](N)Cc2ccc(Cl)cc2)C(=O)N[C@@H](Cc2ccccc2)C(=O)N[C@H](Cc2c[nH]c3ccccc23)C(=O)N[C@@H](CCCN)C(=O)N[C@@H](Cc2ccc(O)cc2)C(=O)N1)C(=O)O
Urotensin-2 receptor [1]
  Ki: 9.55 nM

## CC(C)[C@H](NC(=O)[C@@H]1CSSC(C)(C)[C@H](NC(=O)[C@@H](N)CCCCN)C(=O)N[C@@H](Cc2ccccc2)C(=O)N[C@H](Cc2c[nH]c3ccccc23)C(=O)N[C@@H](CCCN)C(=O)N[C@@H](Cc2ccc(O)cc2)C(=O)N1)C(=O)O
Urotensin-2 receptor [1]
  Ki: 219 nM

## CC(C)[C@H](NC(=O)[C@@H]1CSSC(C)(C)[C@H](NC(=O)[C@@H](N)Cc2cccc3ccccc23)C(=O)N[C@@H](Cc2ccccc2)C(=O)N[C@H](Cc2c[nH]c3ccccc23)C(=O)N[C@@H](CCCN)C(=O)N[C@@H](Cc2ccc(O)cc2)C(=O)N1)C(=O)O
Urotensin-2 receptor [1]
  Ki: 3.89 nM

## CC(C)[C@H](NC(=O)[C@@H]1CSSC(C)(C)[C@H](NC(=O)[C@@H]2Cc3ccccc3CN2)C(=O)N[C@@H](Cc2ccccc2)C(=O)N[C@H](Cc2c[nH]c3ccccc23)C(=O)N[C@@H](CCCN)C(=O)N[C@@H](Cc2ccc(O)cc2)C(=O)N1)C(=O)O
Urotensin-2 receptor [1]
  Ki: 9.33 nM

## CC(C)[C@H](NC(=O)[C@@H]1CSSC(C)(C)[C@H](NC(=O)[C@@H](N)Cc2ccc3ccccc3c2)C(=O)N[C@@H](Cc2ccccc2)C(=O)N[C@H](Cc2c[nH]c3ccccc23)C(=O)N[C@@H](CCCN)C(=O)N[C@@H](Cc2ccc(O)cc2)C(=O)N1)C(=O)O
Urotensin-2 receptor [1]
  Ki: 11.7 nM

## CC(C)[C@H](NC(=O)[C@@H]1CSSC(C)(C)[C@H](NC(=O)[C@H](C)N)C(=O)N[C@@H](Cc2ccccc2)C(=O)N[C@@H](Cc2c[nH]c3ccccc23)C(=O)N[C@@H](CCCCN)C(=O)N[C@@H](Cc2ccc(O)cc2)C(=O)N1)C(=O)O
Urotensin-2 receptor [2]
  EC50: 9.12 nM
Urotensin-2 receptor [1]
  Ki: 0.794 nM

## CC(C)[C@H](NC(=O)[C@@H]1CSSC(C)(C)[C@@H](NC(=O)[C@@H](N)CCCCN)C(=O)N[C@@H](Cc2ccccc2)C(=O)N[C@H](Cc2c[nH]c3ccccc23)C(=O)N[C@@H](CCCN)C(=O)N[C@@H](Cc2ccc(O)cc2)C(=O)N1)C(=O)O
[3]
  pKb: 7.49

## CC(C)[C@H](NC(=O)[C@@H]1CSSC(C)(C)[C@@H](NC(=O)[C@@H](N)Cc2ccc(Cl)cc2)C(=O)N[C@@H](Cc2ccccc2)C(=O)N[C@H](Cc2c[nH]c3ccccc23)C(=O)N[C@@H](CCCN)C(=O)N[C@@H](Cc2ccc(O)cc2)C(=O)N1)C(=O)O
[3]
  pKb: 7.85

## CC(C)[C@H](NC(=O)[C@@H]1CSSC(C)(C)[C@@H](NC(=O)[C@@H](N)Cc2ccc([N+](=O)[O-])cc2)C(=O)N[C@@H](Cc2ccccc2)C(=O)N[C@H](Cc2c[nH]c3ccccc23)C(=O)N[C@@H](CCCN)C(=O)N[C@@H](Cc2ccc(O)cc2)C(=O)N1)C(=O)O
[3]
  pKb: 7.9

## CC(C)[C@H](NC(=O)[C@@H]1CSSC(C)(C)[C@@H](NC(=O)[C@@H](N)Cc2ccc3ccccc3c2)C(=O)N[C@@H](Cc2ccccc2)C(=O)N[C@H](Cc2c[nH]c3ccccc23)C(=O)N[C@@H](CCCN)C(=O)N[C@@H](Cc2ccc(O)cc2)C(=O)N1)C(=O)O
[3]
  pKb: 7.89

## CC(C)[C@H](NC(=O)[C@@H]1CSSC(C)(C)[C@@H](NC(=O)[C@@H](N)Cc2cccc3ccccc23)C(=O)N[C@@H](Cc2ccccc2)C(=O)N[C@H](Cc2c[nH]c3ccccc23)C(=O)N[C@@H](CCCN)C(=O)N[C@@H](Cc2ccc(O)cc2)C(=O)N1)C(=O)O
[3]
  pKb: 8.5

## CC(C)[C@H](NC(=O)[C@@H]1CSSC(C)(C)[C@@H](NC(=O)[C@@H](N)Cc2ccccc2)C(=O)N[C@@H](Cc2ccccc2)C(=O)N[C@H](Cc2c[nH]c3ccccc23)C(=O)N[C@@H](CCCN)C(=O)N[C@@H](Cc2ccc(O)cc2)C(=O)N1)C(=O)O
[3]
  pKb: 8.68

## CC(C)[C@H](NC(=O)[C@@H]1CSSC(C)(C)[C@@H](NC(=O)[C@@H]2Cc3ccccc3CN2)C(=O)N[C@@H](Cc2ccccc2)C(=O)N[C@H](Cc2c[nH]c3ccccc23)C(=O)N[C@@H](CCCN)C(=O)N[C@@H](Cc2ccc(O)cc2)C(=O)N1)C(=O)O
[3]
  pKb: 8.94

## CC(C)[C@H](NC(=O)[C@@H]1CSSC(C)(C)[C@@H](NC(=O)[C@H](C)N)C(=O)N[C@@H](Cc2ccccc2)C(=O)N[C@H](Cc2c[nH]c3ccccc23)C(=O)N[C@@H](CCCN)C(=O)N[C@@H](Cc2ccc(O)cc2)C(=O)N1)C(=O)O
[3]
  pKb: 7.84

## CC(C)[C@H](NC(=O)[C@@H]1CSSC[C@H](NC(=O)[C@@H](N)CC(=O)O)C(=O)N[C@@H](Cc2ccccc2)C(=O)N[C@@H](Cc2c[nH]c3ccccc23)C(=O)N[C@@H](CCCCN)C(=O)N[C@@H](Cc2ccc(O)cc2)C(=O)N1)C(=O)O (H-DCFWKYCV-OH; disulfide 2-7)
Urotensin-2 receptor [2]
  EC50: 2.51 nM

## CC(C)[C@H](NC(=O)[C@@H]1CSSC(C)(C)[C@H](NC(=O)[C@@H](N)CC(=O)O)C(=O)N[C@@H](Cc2ccccc2)C(=O)N[C@@H](Cc2c[nH]c3ccccc23)C(=O)N[C@@H](CCCCN)C(=O)N[C@@H](Cc2ccc(O)cc2)C(=O)N1)C(=O)O (H-D[Pen]FWKYCV-OH; disulfide 2-7)
Urotensin-2 receptor [2]
  EC50: 0.251 nM

## CC(C)[C@H](NC(=O)[C@@H]1CSSC(C)(C)[C@H](NC(=O)[C@@H](N)Cc2ccccc2)C(=O)N[C@@H](Cc2ccccc2)C(=O)N[C@@H](Cc2c[nH]c3ccccc23)C(=O)N[C@@H](CCCCN)C(=O)N[C@@H](Cc2ccc(O)cc2)C(=O)N1)C(=O)O (H-F[Pen]FWKYCV-OH; disulfide 2-7)
Urotensin-2 receptor [2]
  EC50: 0.661 nM
Urotensin-2 receptor [1]
  Ki: 0.282 nM

## CC(C)[C@H](NC(=O)[C@@H]1CSSC(C)(C)[C@H](NC(=O)[C@@H](N)CCCCN)C(=O)N[C@@H](Cc2ccccc2)C(=O)N[C@@H](Cc2c[nH]c3ccccc23)C(=O)N[C@@H](CCCCN)C(=O)N[C@@H](Cc2ccc(O)cc2)C(=O)N1)C(=O)O (H-K[Pen]FWKYCV-OH; disulfide 2-7)
Urotensin-2 receptor [2]
  EC50: 6.03 nM
Urotensin-2 receptor [1]
  Ki: 9.33 nM

## CC(C)[C@H](NC(=O)[C@@H]1CSSC(C)(C)[C@H](NC(=O)[C@@H](N)Cc2cccc3ccccc23)C(=O)N[C@@H](Cc2ccccc2)C(=O)N[C@@H](Cc2c[nH]c3ccccc23)C(=O)N[C@@H](CCCCN)C(=O)N[C@@H](Cc2ccc(O)cc2)C(=O)N1)C(=O)O (H-[1Nal][Pen]FWKYCV-OH; disulfide 2-7)
Urotensin-2 receptor [2]
  EC50: 102 nM
Urotensin-2 receptor [1]
  Ki: 26.3 nM

## CC(C)[C@H](NC(=O)[C@@H]1CSSC(C)(C)[C@H](NC(=O)[C@@H](N)Cc2ccc3ccccc3c2)C(=O)N[C@@H](Cc2ccccc2)C(=O)N[C@@H](Cc2c[nH]c3ccccc23)C(=O)N[C@@H](CCCCN)C(=O)N[C@@H](Cc2ccc(O)cc2)C(=O)N1)C(=O)O (H-[2Nal][Pen]FWKYCV-OH; disulfide 2-7)
Urotensin-2 receptor [2]
  EC50: 5.25 nM
Urotensin-2 receptor [1]
  Ki: 6.46 nM

## CC(C)[C@H](NC(=O)[C@@H]1CSSC(C)(C)[C@H](NC(=O)[C@@H](N)Cc2ccc(Cl)cc2)C(=O)N[C@@H](Cc2ccccc2)C(=O)N[C@@H](Cc2c[nH]c3ccccc23)C(=O)N[C@@H](CCCCN)C(=O)N[C@@H](Cc2ccc(O)cc2)C(=O)N1)C(=O)O (H-[Phe(4-Cl)][Pen]FWKYCV-OH; disulfide 2-7)
Urotensin-2 receptor [2]
  EC50: 1.38 nM
Urotensin-2 receptor [1]
  Ki: 0.891 nM

## CC(C)[C@H](NC(=O)[C@@H]1CSSC(C)(C)[C@H](NC(=O)[C@@H](N)Cc2ccc([N+](=O)[O-])cc2)C(=O)N[C@@H](Cc2ccccc2)C(=O)N[C@@H](Cc2c[nH]c3ccccc23)C(=O)N[C@@H](CCCCN)C(=O)N[C@@H](Cc2ccc(O)cc2)C(=O)N1)C(=O)O (H-[Phe(4-NO2)][Pen]FWKYCV-OH; disulfide 2-7)
Urotensin-2 receptor [2]
  EC50: 72.4 nM
Urotensin-2 receptor [1]
  Ki: 13.5 nM

## CC(C)[C@H](NC(=O)[C@@H]1CSSC(C)(C)[C@H](NC(=O)[C@@H]2Cc3ccccc3CN2)C(=O)N[C@@H](Cc2ccccc2)C(=O)N[C@@H](Cc2c[nH]c3ccccc23)C(=O)N[C@@H](CCCCN)C(=O)N[C@@H](Cc2ccc(O)cc2)C(=O)N1)C(=O)O (H-[Tic][Pen]FWKYCV-OH; disulfide 2-7)
Urotensin-2 receptor [2]
  EC50: 1.35 nM
Urotensin-2 receptor [1]
  Ki: 2.63 nM

## CC(C)[C@H](NC(=O)[C@@H]1CSSC[C@H](NC(=O)[C@H](CC(=O)O)NC(=O)[C@@H]2CCCN2C(=O)[C@@H](NC(=O)[C@@H](N)CCC(=O)O)[C@@H](C)O)C(=O)N[C@@H](Cc2ccccc2)C(=O)N[C@@H](Cc2c[nH]c3ccccc23)C(=O)N[C@@H](CCCCN)C(=O)N[C@@H](Cc2ccc(O)cc2)C(=O)N1)C(=O)O [HUMAN UROTENSIN II]
Urotensin-2 receptor [2]
  EC50: 5.01 nM
